Source: EP0112419A1, “Pharmacologically active naphthotriazole derivatives” (BEECHAM GROUP PLC, priority 1982, dated 1984)

Test system: rat passive peritoneal anaphylaxis
Assay: Rat passive peritoneal anaphylaxis (PPA)
Assay type: in vivo
Conditions: for Concentration in peritoneal fluid as % of mean of controls (Mean ± SEM, 5-7 rats per group) Dye: Pontamine Sky Blue, OD at 625 nm; for Concentration in peritoneal fluid as % of mean of controls (Mean ± SEM, 5-7 rats per group) Histamine: fluid collected 5 min after challenge
Description: • a) inhibit rat passive peritoneal anaphylaxis; and • b) antagonise the spasmogenic effects of slow reacting substance of anaphylaxis, SRS-A, on isolated guinea pig ileum.
Charles River Sprague Dawley male rats of 250 - 300 g. and Dunkin Hartley male white guinea pigs of 250 - 300 g. were used. v
The method has been described previously. (Ross, Janet W., Smith, H. and Spicer, Barbara A. Increased vascular permeability during passive peritoneal anaphylaxis in the rat. Int. Arch. Allergy appl. Immun., 51, 226, 1976).
Rats were sensitised by giving an intraperitoneal injection of 0.5 ml of Bordetella pertussis vaccine (4 x 10^10 organisms/ml Burroughs Wellcome, London) and a subcutaneous injection of 0.5 ml of an emulsion of 100 mg of ovalbumin (chicken egg albumin, crystallised and lyophilised, grade 3, Sigma, London) in 2 ml of isotonic saline and 3 ml of Freund's incomplete adjuvant (Difco Laboratories, Michigan, USA) .
The rats were bled by cardiac puncture, on day 18, the blood was pooled, and the serum separated, stored at -20°C and thawed only once before use.
Rats were each given an intraperitoneal injection of 2 ml of a 1:5 dilution of the rat anti-serum in isotonic saline. Two hours later 0.3 ml of a 5% solution of Pontamine Sky Blue (Raymond A. Lamb, London) in isotonic saline was injected intravenously, followed by an intraperitoneal injection of the test compound in 1 ml of saline; (control rats received 1 ml of saline); followed 30 seconds later by an intraperitoneal injection of 5 ml of Tyrode's solution containing […]/ml heparin and 0.4 mg/ml of ovalbumin. The concentrations of the compounds were quoted as those in the 6 ml of fluid injected intraperitoneally. Exactly five minutes after challenge the rats were stunned and bled and their peritoneal fluids were collected by,opening their peritoneal cavities over funnels into polycarbonate tubes in ice. The supernatants were separated from the cellular residue by centrifuging at 150 g. for five minutes and were retained for assay of dye and histamine. Any samples obviously contaminated with blood were not used for estimation of dye. Groups of at least five rats were used for each dose of compound and the treatments were randomised.
Dye was assayed within two hours by measurement of optical density (OD) at 625 nm.
For histamine assay 0.5 ml samples of the supernatants were added to 1 ml volumes of 12% trichloracetic acid and stored at -20°C. The deproteinised samples were assayed using an automated spectrofluorimetric system (Technicon Autoanalyser) by a method similar to that of Evans, D.P., Lewis, J.A. and Thomson, D.S.: (An automated fluorimetric assay for the rapid determination of histamine in biological fluids. Life Sci., 12, 327, 1973).

[1] = conc. injected i.p. 2 x 10^-5 M
[2] = conc. injected i.p. 2 x 10^-6 M
[3] = conc. injected i.p. 2 x 10^-7 M
[4] = conc. injected i.p. 2 x 10^-8 M

Structure (SMILES)	Concentration in peritoneal fluid as % of mean of controls (Mean ± SEM, 5-7 rats per group) Dye [1] [%]	Concentration in peritoneal fluid as % of mean of controls (Mean ± SEM, 5-7 rats per group) Histamine [1] [%]	Concentration in peritoneal fluid as % of mean of controls (Mean ± SEM, 5-7 rats per group) Dye [2] [%]	Concentration in peritoneal fluid as % of mean of controls (Mean ± SEM, 5-7 rats per group) Histamine [2] [%]	Concentration in peritoneal fluid as % of mean of controls (Mean ± SEM, 5-7 rats per group) Dye [3] [%]	Concentration in peritoneal fluid as % of mean of controls (Mean ± SEM, 5-7 rats per group) Histamine [3] [%]	Concentration in peritoneal fluid as % of mean of controls (Mean ± SEM, 5-7 rats per group) Dye [4] [%]	Concentration in peritoneal fluid as % of mean of controls (Mean ± SEM, 5-7 rats per group) Histamine [4] [%]
CCCc1c(OCCCOc2ccc3c(c2)C(=O)c2nn[nH]c2C3=O)ccc(C(C)=O)c1O [Example 1 and 2, 6-[3-(4-Acetyl-3-hydroxy-2-n-propylphenoxy)propoxy]-4,9-dihydro-4,9-dioxo-1H-naphtho[2,3-d]-v-triazole]	32 ± 5	10 ± 1	58 ± 8	27 ± 8	63 ± 5	57 ± 11	–	–
CCCc1c(OCCCOc2cccc3c2C(=O)c2nn[nH]c2C3=O)ccc(C(C)=O)c1O [Example 3, 5-[3-(4-Acetyl-3-hydroxy-2-n-propylphenoxy)-pro^poxy]-4,9-dihydro-4,9-dioxo-1H-naphtho[2,3-d]-v-triazole]	57 ± 4	25 ± 3	94 ± 8	62 ± 11	–	–	–	–
CCCc1c(OCC(O)COc2ccc3c(c2)C(=O)c2nn[nH]c2C3=O)ccc(C(C)=O)c1O (centres unmarked) [Example 4, 6-[3-(4-Acetyl-3-hydroxy-2-n-propylphenoxy)-2-hydroxy-pronoxy]-4,9-dihydro-4,9-dioxo-1H-naphtho[2,3-d]-v-triazole]	–	–	–	–	58 ± 4	38 ± 4	72 ± 11	64 ± 11
